Here are results for two compounds from patent US20090092662A1, “LIPOSOME FORMULATIONS OF BORONIC ACID COMPOUNDS” (priority 2007, published 2009).

Like-named read-outs stand apart in the source and are kept apart here.

Data set [1] in a line: ITC drug binding study of complexing reagents to bortezomib. The settings on record: pH 9.5, 100 mM glycine, 30° C., bortezomib titrated into complexing reagent. Here is the method: The binding of the various complexing reagents to bortazomib were investigated by isothermal titration calorimetry (VP-ITC, MicroCal, Northampton, Mass.) under controlled parameters. […] The pH level was checked twice and adjustments were made as necessary to within 0.2 units. The solutions were degassed for 10-15 min. […] The experiments were conducted at 30° C. […] Data processing to generate the binding parameters was performed using the software program provided by the ITC manufacture (Microcal origin v5.0).

Data set [2] relates to tumor lines. Conditions: range of tumor lines, NCI in vitro screen; cited from earlier work.
The subject of data set [3] is human prostate cancer xenograft. Conditions: human prostate xenograft model; cited from earlier work. (In general: In xenograft studies the graft and the host belong to different species.)
For data set [4], the system named is lung cancer xenograft. The settings on record: lung cancer xenograft model; cited from earlier work.
For data set [5] the following is noted: cited from earlier work.

`OCC(O)CNCC(O)C(O)C(OC1OC(CO)C(O)C(O)C1O)C(O)CO` (stereo not drawn) [Example 5] came in with a K in data set [1] of 2366 mol⁻¹.
On to `CC(C)C[C@H](NC(=O)[C@H](Cc1ccccc1)NC(=O)c1cnccn1)B(O)O` [bortezomib], for which the cytotoxicity result in data set [2] is “showed cytotoxicity against a range of tumor lines”. Moreover, the antitumor activity result in data set [3] and in data set [4] was “had antitumor activity” in each case. The maximum tolerated dose is 1.56 mg/m^2 in data set [5] (intravenous bolus on days 1, 4, 8, and 11 of a 3-week cycle); 1.3 mg/m^2 in data set [5] (intravenously once or twice weekly, patients with solid tumors).
